Reference: PubChem BioAssay (NCI)
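Exposure lasted 48 hours, with cells grown in 96-well plates and compounds tested at five concentrations. At the GI50, growth is halved. TGI: total growth inhibition.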

Experiments:
Assay in all cases: growth of human tumour cells (NCI), 48 h
[1] = test system: 786-0 renal
[2] = test system: A549 NSCLC
[3] = test system: ACHN renal
[4] = test system: BT-549 breast
[5] = test system: CAKI-1 renal
[6] = test system: COLO 205 colon
[7] = test system: DU-145 prostate
[8] = test system: EKVX NSCLC
[9] = test system: HCC-2998 colon
[10] = test system: HCT-116 colon
[11] = test system: HCT-15 colon
[12] = test system: HOP-62 NSCLC
[13] = test system: HOP-92 NSCLC
[14] = test system: HS 578T breast
[15] = test system: IGROV1 ovarian
[16] = test system: K-562 leukemia
[17] = test system: KM12 colon
[18] = test system: LOX IMVI melanoma
[19] = test system: M14 melanoma
[20] = test system: MCF7 breast
[21] = test system: MDA-MB-231 breast
[22] = test system: MDA-MB-435
[23] = test system: NCI-H23 lung
[24] = test system: NCI-H460 lung
[25] = test system: NCI-H522 lung
[26] = test system: NCI/ADR-RES ovarian
[27] = test system: OVCAR-3 ovarian
[28] = test system: OVCAR-4 ovarian
[29] = test system: OVCAR-5 ovarian
[30] = test system: OVCAR-8 ovarian
[31] = test system: PC-3 prostate
[32] = test system: RPMI-8226 leukemia
[33] = test system: SF-268 CNS
[34] = test system: SF-295 CNS
[35] = test system: SF-539 CNS
[36] = test system: SK-MEL-2 melanoma
[37] = test system: SK-MEL-28 melanoma
[38] = test system: SK-MEL-5 melanoma
[39] = test system: SK-OV-3 ovarian
[40] = test system: SN12C renal
[41] = test system: SNB-19 CNS
[42] = test system: SR leukemia
[43] = test system: SW-620 colon
[44] = test system: T-47D breast
[45] = test system: TK-10 renal
[46] = test system: U251 CNS
[47] = test system: UACC-257 melanoma
[48] = test system: UACC-62 melanoma
[49] = test system: UO-31 renal
[50] = test system: A498 renal
[51] = test system: CCRF-CEM leukemia
[52] = test system: HL-60(TB) leukemia
[53] = test system: HT29 colon
[54] = test system: MOLT-4 leukemia
[55] = test system: NCI-H226 lung
[56] = test system: SNB-75 CNS

COC(=O)C1=C(O)[C@H](C(=O)OC)C2(O)C(C(=O)OC)[C@H](c3ccc(OC(=O)C(C)c4ccc(CC(C)C)cc4)cc3)C[C@@H]1[C@@H]2C(=O)OC (some centres undefined)
GI50 [1]: 20.4 µM
TGI [1]: > 50 µM
GI50 [2]: 26.8 µM
TGI [2]: > 50 µM
GI50 [3]: 12 µM
TGI [3]: 31.3 µM
GI50 [4]: 1.03 µM
TGI [4]: 3.68 µM
GI50 [5]: > 50 µM
TGI [5]: > 50 µM
GI50 [6]: 12.3 µM
TGI [6]: 41.3 µM
GI50 [7]: 0.804 µM
TGI [7]: 9.58 µM
GI50 [8]: 0.97 µM
TGI [8]: 6.7 µM
GI50 [9]: 7.95 µM
TGI [9]: 15.8 µM
GI50 [10]: > 50 µM
TGI [10]: > 50 µM
GI50 [11]: 12.9 µM
TGI [11]: > 50 µM
GI50 [12]: 31.7 µM
TGI [12]: > 50 µM
GI50 [13]: 32.8 µM
TGI [13]: > 50 µM
GI50 [14]: 33 µM
TGI [14]: > 50 µM
GI50 [15]: 15 µM
TGI [15]: 41.3 µM
GI50 [16]: 0.695 µM
TGI [16]: > 50 µM
GI50 [17]: 40.3 µM
TGI [17]: > 50 µM
GI50 [18]: 6.06 µM
TGI [18]: 14.9 µM
GI50 [19]: 25.3 µM
TGI [19]: > 50 µM
GI50 [20]: 8.18 µM
TGI [20]: > 50 µM
GI50 [21]: 5.52 µM
TGI [21]: 22.8 µM
GI50 [22]: 12.8 µM
TGI [22]: 28.2 µM
GI50 [23]: 11.1 µM
TGI [23]: 24.9 µM
GI50 [24]: 13.2 µM
TGI [24]: > 50 µM
GI50 [25]: 14.3 µM
TGI [25]: > 50 µM
GI50 [26]: > 50 µM
TGI [26]: > 50 µM
GI50 [27]: > 50 µM
TGI [27]: > 50 µM
GI50 [28]: 11.7 µM
TGI [28]: > 50 µM
GI50 [29]: 17 µM
TGI [29]: > 50 µM
GI50 [30]: 13.1 µM
TGI [30]: > 50 µM
GI50 [31]: 35 µM
TGI [31]: > 50 µM
GI50 [32]: 4.62 µM
TGI [32]: > 50 µM
GI50 [33]: > 50 µM
TGI [33]: > 50 µM
GI50 [34]: > 50 µM
TGI [34]: > 50 µM
GI50 [35]: 1.4 µM
TGI [35]: 8.05 µM
GI50 [36]: 24.9 µM
TGI [36]: > 50 µM
GI50 [37]: 12.6 µM
TGI [37]: 40.8 µM
GI50 [38]: 15 µM
TGI [38]: > 50 µM
GI50 [39]: 38.5 µM
TGI [39]: > 50 µM
GI50 [40]: 9.58 µM
TGI [40]: 22.9 µM
GI50 [41]: 40 µM
TGI [41]: > 50 µM
GI50 [42]: 0.754 µM
TGI [42]: > 50 µM
GI50 [43]: 18.1 µM
TGI [43]: > 50 µM
GI50 [44]: 12.3 µM
TGI [44]: > 50 µM
GI50 [45]: 30.6 µM
TGI [45]: > 50 µM
GI50 [46]: 11.6 µM
TGI [46]: 30.2 µM
GI50 [47]: 27.2 µM
TGI [47]: > 50 µM
GI50 [48]: 9.41 µM
TGI [48]: 22.4 µM
GI50 [49]: 12.3 µM
TGI [49]: > 50 µM

Cn1cc(-c2ccc3cc(-c4ccc(CC(=O)Nc5cc(C(C)(C)C)on5)cc4)cnc3c2)cn1
GI50 [50]: 0.269 µM
TGI [50]: 2.26 µM
GI50 [2]: 1.72 µM
TGI [2]: > 100 µM
GI50 [4]: 2.08 µM
TGI [4]: 31.8 µM
GI50 [5]: 0.426 µM
TGI [5]: 3.45 µM
GI50 [51]: 2.17 µM
TGI [51]: > 100 µM
GI50 [6]: 2.95 µM
TGI [6]: > 100 µM
GI50 [7]: 1.05 µM
TGI [7]: 10.2 µM
GI50 [8]: 0.624 µM
TGI [8]: 3.45 µM
GI50 [9]: 2.89 µM
TGI [9]: 21 µM
GI50 [11]: 0.466 µM
TGI [11]: 4.87 µM
GI50 [52]: 2.66 µM
TGI [52]: 7.45 µM
GI50 [12]: 2.54 µM
TGI [12]: > 100 µM
GI50 [13]: 4.23 µM
TGI [13]: 26 µM
GI50 [14]: 0.397 µM
TGI [14]: 15.2 µM
GI50 [53]: 2.26 µM
TGI [53]: > 100 µM
GI50 [15]: 0.356 µM
TGI [15]: 3.52 µM
GI50 [16]: 1.85 µM
TGI [16]: > 100 µM
GI50 [17]: 0.07 µM
TGI [17]: 11.2 µM
GI50 [18]: 0.945 µM
TGI [18]: 10.9 µM
GI50 [20]: 1.92 µM
TGI [20]: 17.8 µM
GI50 [21]: 2.26 µM
TGI [21]: 12.2 µM
GI50 [22]: 1.43 µM
TGI [22]: 3.54 µM
GI50 [54]: 3.01 µM
TGI [54]: > 100 µM
GI50 [55]: 2.46 µM
TGI [55]: 34.6 µM
GI50 [23]: 2.27 µM
TGI [23]: 10.5 µM
GI50 [24]: 0.84 µM
TGI [24]: 2.55 µM
GI50 [26]: 1.84 µM
TGI [26]: 5.11 µM
GI50 [27]: 2.49 µM
TGI [27]: 12.7 µM
GI50 [29]: 4.4 µM
TGI [29]: 18.9 µM
GI50 [30]: 2.16 µM
TGI [30]: > 100 µM
GI50 [31]: 2.4 µM
TGI [31]: 20.8 µM
GI50 [32]: 2.34 µM
TGI [32]: > 100 µM
GI50 [33]: 1.96 µM
TGI [33]: 14.8 µM
GI50 [34]: 1.65 µM
TGI [34]: 6.74 µM
GI50 [35]: 0.339 µM
TGI [35]: 14.4 µM
GI50 [36]: 0.922 µM
TGI [36]: 12.4 µM
GI50 [37]: 1.95 µM
TGI [37]: 5.25 µM
GI50 [38]: 2.31 µM
TGI [38]: 6.55 µM
GI50 [39]: 0.657 µM
TGI [39]: > 100 µM
GI50 [40]: 1.15 µM
TGI [40]: 10.4 µM
GI50 [41]: 2.18 µM
TGI [41]: 8.68 µM
GI50 [56]: 1.11 µM
TGI [56]: 3.03 µM
GI50 [42]: 3.07 µM
TGI [42]: > 100 µM
GI50 [43]: 1.54 µM
TGI [43]: 3.99 µM
GI50 [44]: 2.68 µM
TGI [44]: > 100 µM
GI50 [45]: 1.63 µM
TGI [45]: 10.4 µM
GI50 [48]: 1.02 µM
TGI [48]: 3.12 µM
GI50 [49]: 0.382 µM
TGI [49]: 3.14 µM
